Experimental data as given in publication PMC6444592, “Citrullination of HP1γ chromodomain affects association with chromatin” (Epigenetics & Chromatin, 2019).

Columns and labels:
chromatin = experiment: single-particle tracking, 500 ms, motion blurring: chromatin residence time; assay type: cell-based, mouse; conditions: for Percentage, Specific / Percentage, Unspecific / Residence time, Specific / Residence time, Unspecific / Residence time, specific binding: 500 ms; for Residence time, specific binding / specific residence time, in words: −LIF 72 h; for Residence time, specific binding: mESCs, mean ± SD (n = 3); for specific residence time, in words: p value left to right = 0.027, 0.036; for unspecific residence time, effect of LIF withdrawal: ns. p value > 0.841
Text: Although HP1 is a multifunctional protein, its best-characterised function is its ability to specifically bind to H3 tails harbouring H3K9me3. This underpins the establishment of localised, as well as higher-order, chromatin domains. Indeed, binding of structural chromatin proteins, such as HP1, is crucial in establishing heterochromatin during stem cell differentiation. We therefore decided to focus on the chromatin bound fraction of HP1γ. We used a concept called motion blurring in which long exposures are used to blur molecules that are diffusing so they are not detected. Therefore, only molecules bound throughout the long exposure are imaged. We performed SPT at 500 ms time resolution of mESCs expressing either HP1γWT or HP1γR38/9A mutant proteins (−/+ LIF). Movies of representative cells are shown in Additional file 8: Movie S1, Additional file 9: Movie S2, Additional file 10: Movie S3, and Additional file 11: Movie S4.
(§1) Parental E14 mouse embryonic stem cell (mESC) line was profiled by transcriptome analysis, qPCR and potency assays and was routinely tested for mycoplasma contamination and tested negative. Cells were cultured in DMEM (Gibco) supplemented with 15% standard FCS (Gibco), 0.1 mM non-essential amino acids (Gibco), 1% penicillin/streptomycin, 2 mM L-glutamine (Gibco), 1 mM sodium pyruvate (Gibco), 0.1 mM β-mercaptoethanol (Life Technologies) and 10^6 units/l mLIF (ESGRO, Millipore). E14 cells were stored in incubators at 37 °C in 7.5% CO2 (100% humidity) and maintained in 0.1% gelatin coated 10-cm culture dishes with 1:6 passaging every 2 days. Media was changed on a daily basis. E14 ESCs expressing mouse mEos3.2–HaloTag-HP1 fusion proteins were generated by transfecting appropriate pSB7 plasmids into E14 cells using Lipofectamine 2000 transfection reagent (Invitrogen), followed by selection in 600 µg/ml geneticin (Life Technologies). After 2 weeks of geneticin selection, cells were sorted using a Sony SH800S cell sorter for the expression of mEos3.2. Differentiation of ESCs was induced by LIF withdrawal. ESCs cultured in complete ES cell media (+ LIF) were trypsinised and washed twice in 1x PBS to remove residual LIF, seeded into ES cell media without LIF and incubated for 24, 48 or 72 h.
An IX73 Olympus inverted microscope was used with circularly polarised laser beams aligned and focused at the back aperture of an Olympus 1.40 NA 100 × oil objective (Universal Plan Super Apochromat, 100 × , NA 1.40, UPLSAPO100XO/1.4). Continuous wavelength diode laser light sources used include a 561-nm (Cobolt, Jive 200, 200 mW) and a 405-nm laser (Stradus, Toptica, 405–100, 100 mW). Oblique angle illumination was achieved by aligning the laser off axis such that the emergent beam at the sample interface was near-collimated and incident at an angle slightly less than the critical angle θc ~ 67° for a glass/water interface. This generated a ~ 50 μm diameter excitation footprint. The power of the collimated beams at the back aperture of the microscope was 10 kW/cm^2 and 10–100 W/cm^2 for the 561-nm and 405-nm laser beams, respectively. The lasers were reflected by dichroic mirrors (Semrock, Di01-R405/488/561/635). The fluorescence emission was collected through the same objective and then further filtered using a combination of long-pass and band-pass filters (BLP01-561R and FF01-587/35 for 561 nm excitation). The emission signal was projected onto an EMCCD (Photometrics, Evolve 512 Delta) with an electron multiplication gain of 250 ADU/photon operating in a frame transfer mode.
mESCs expressing mEos3.2–HaloTag-tagged HP1γ were passaged 2 days before imaging onto 35-mm glass bottom dishes No 1.0 (MatTek Corporation P35G-1.0-14-C Case) in phenol red-free serum and LIF conditions, if not stated otherwise. […]

mESCs = experiment: pluripotency marker mRNA (RT-PCR) and morphology of mESCs; assay type: cell-based, mouse; conditions: mESCs stably expressing fusion protein; +/− LIF; n = 2
Method: as §1, with “Differentiation of ESCs was induced by LIF withdrawal. ESCs cultured in complete ES cell media (+ LIF) were trypsinised and washed twice in 1x PBS to remove residual LIF, seeded into ES cell media without LIF and incubated for 24, 48 or 72 h.” left out
Cells were lysed using QIAzol® lysis reagent (Qiagen) and total RNA was isolated using RNeasy® Mini Kit with in column DNase treatment (Qiagen). […] Relative expression was calculated with the 2^−ΔΔCt method, normalising to the housekeeping gene β-actin. Data were analysed using GraphPad Prism 7 software. […]

HP1γR38/9A: HP1γ with alanine substitutions at amino acids 38 and 39 to mimic citrullination
Percentage, Specific (chromatin; +LIF, replicate i): 89.000%
Percentage, Unspecific (chromatin; +LIF, replicate i): 11.000%
Residence time, Specific (chromatin; +LIF, replicate i): 26.000 s
Residence time, Unspecific (chromatin; +LIF, replicate i): 4.100 s
Percentage, Specific (chromatin; +LIF, replicate ii): 90.900%
Percentage, Unspecific (chromatin; +LIF, replicate ii): 9.100%
Residence time, Specific (chromatin; +LIF, replicate ii): 17.900 s
Residence time, Unspecific (chromatin; +LIF, replicate ii): 2.100 s
Percentage, Specific (chromatin; +LIF, replicate iii): 82.500%
Percentage, Unspecific (chromatin; +LIF, replicate iii): 17.500%
Residence time, Specific (chromatin; +LIF, replicate iii): 17.400 s
Residence time, Unspecific (chromatin; +LIF, replicate iii): 1.300 s
Residence time, specific binding (chromatin): 29.5 ± 4.1 s
specific residence time, in words (chromatin): significantly lower than for HP1γWT molecules
specific residence time, in words (chromatin; listed as R38/9A mutant HP1γ): considerably shorter
unspecific residence time, effect of LIF withdrawal (chromatin; −LIF 72 h versus +LIF): no effect
Percentage, Specific (chromatin; −LIF, replicate i): 83.000%
Percentage, Unspecific (chromatin; −LIF, replicate i): 17.000%
Residence time, Specific (chromatin; −LIF, replicate i): 34.000 s
Residence time, Unspecific (chromatin; −LIF, replicate i): 4.900 s
Percentage, Specific (chromatin; −LIF, replicate ii): 90.800%
Percentage, Unspecific (chromatin; −LIF, replicate ii): 9.200%
Residence time, Specific (chromatin; −LIF, replicate ii): 28.500 s
Residence time, Unspecific (chromatin; −LIF, replicate ii): 1.700 s
Percentage, Specific (chromatin; −LIF, replicate iii): 88.200%
Percentage, Unspecific (chromatin; −LIF, replicate iii): 11.800%
Residence time, Specific (chromatin; −LIF, replicate iii): 25.900 s
Residence time, Unspecific (chromatin; −LIF, replicate iii): 1.800 s
effect of exogenous expression on pluripotency marker mRNA and morphology (mESCs): no discernible effect on mESC differentiation

HP1γWT: full-length mouse HP1γ wild type, as GST or mEos3.2–HaloTag fusion protein
Percentage, Specific (chromatin; +LIF, replicate i): 91.000%
Percentage, Unspecific (chromatin; +LIF, replicate i): 9.000%
Residence time, Specific (chromatin; +LIF, replicate i): 36.000 s
Residence time, Unspecific (chromatin; +LIF, replicate i): 4.400 s
Percentage, Specific (chromatin; +LIF, replicate ii): 93.400%
Percentage, Unspecific (chromatin; +LIF, replicate ii): 6.600%
Residence time, Specific (chromatin; +LIF, replicate ii): 27.527 s
Residence time, Unspecific (chromatin; +LIF, replicate ii): 1.549 s
Percentage, Specific (chromatin; +LIF, replicate iii): 87.000%
Percentage, Unspecific (chromatin; +LIF, replicate iii): 13.000%
Residence time, Specific (chromatin; +LIF, replicate iii): 22.800 s
Residence time, Unspecific (chromatin; +LIF, replicate iii): 1.500 s
Residence time, specific binding (chromatin): 49.2 ± 12.3 s
specific residence time, in words (chromatin): significantly increased
increase of specific residence time upon differentiation (chromatin; −LIF 72 h versus +LIF): 20 s
unspecific residence time, effect of LIF withdrawal (chromatin; −LIF 72 h versus +LIF): no effect
Percentage, Specific (chromatin; −LIF, replicate i): 88.000%
Percentage, Unspecific (chromatin; −LIF, replicate i): 12.000%
Residence time, Specific (chromatin; −LIF, replicate i): 55.000 s
Residence time, Unspecific (chromatin; −LIF, replicate i): 6.000 s
Percentage, Specific (chromatin; −LIF, replicate ii): 93.500%
Percentage, Unspecific (chromatin; −LIF, replicate ii): 6.500%
Residence time, Specific (chromatin; −LIF, replicate ii): 57.488 s
Residence time, Unspecific (chromatin; −LIF, replicate ii): 1.811 s
Percentage, Specific (chromatin; −LIF, replicate iii): 88.000%
Percentage, Unspecific (chromatin; −LIF, replicate iii): 12.000%
Residence time, Specific (chromatin; −LIF, replicate iii): 35.000 s
Residence time, Unspecific (chromatin; −LIF, replicate iii): 2.300 s
effect of exogenous expression on pluripotency marker mRNA and morphology (mESCs): no discernible effect on mESC differentiation
